Among the data in patent publication US9359381B2, “Tricyclic compounds for inhibiting the CFTR channel” (Novartis AG, priority 2012, dated 2016) are IC50 values, retold here.

The target of the experiment is T1, WT-CFTR channels (Homo sapiens, UniProt P13569).
T1 construct: expressed in transfected cells
As to the kind of experiment: IonWorks Quattro CFTR inhibitor assay (whole-cell planar patch clamp). In kind it is cell-based. The settings on record: inward current (−100 mV); CHO cells stably expressing WT-CFTR; CFTR activated by 10 μM forskolin; 10 min compound incubation.

T1 sequence (P13569 whole entry): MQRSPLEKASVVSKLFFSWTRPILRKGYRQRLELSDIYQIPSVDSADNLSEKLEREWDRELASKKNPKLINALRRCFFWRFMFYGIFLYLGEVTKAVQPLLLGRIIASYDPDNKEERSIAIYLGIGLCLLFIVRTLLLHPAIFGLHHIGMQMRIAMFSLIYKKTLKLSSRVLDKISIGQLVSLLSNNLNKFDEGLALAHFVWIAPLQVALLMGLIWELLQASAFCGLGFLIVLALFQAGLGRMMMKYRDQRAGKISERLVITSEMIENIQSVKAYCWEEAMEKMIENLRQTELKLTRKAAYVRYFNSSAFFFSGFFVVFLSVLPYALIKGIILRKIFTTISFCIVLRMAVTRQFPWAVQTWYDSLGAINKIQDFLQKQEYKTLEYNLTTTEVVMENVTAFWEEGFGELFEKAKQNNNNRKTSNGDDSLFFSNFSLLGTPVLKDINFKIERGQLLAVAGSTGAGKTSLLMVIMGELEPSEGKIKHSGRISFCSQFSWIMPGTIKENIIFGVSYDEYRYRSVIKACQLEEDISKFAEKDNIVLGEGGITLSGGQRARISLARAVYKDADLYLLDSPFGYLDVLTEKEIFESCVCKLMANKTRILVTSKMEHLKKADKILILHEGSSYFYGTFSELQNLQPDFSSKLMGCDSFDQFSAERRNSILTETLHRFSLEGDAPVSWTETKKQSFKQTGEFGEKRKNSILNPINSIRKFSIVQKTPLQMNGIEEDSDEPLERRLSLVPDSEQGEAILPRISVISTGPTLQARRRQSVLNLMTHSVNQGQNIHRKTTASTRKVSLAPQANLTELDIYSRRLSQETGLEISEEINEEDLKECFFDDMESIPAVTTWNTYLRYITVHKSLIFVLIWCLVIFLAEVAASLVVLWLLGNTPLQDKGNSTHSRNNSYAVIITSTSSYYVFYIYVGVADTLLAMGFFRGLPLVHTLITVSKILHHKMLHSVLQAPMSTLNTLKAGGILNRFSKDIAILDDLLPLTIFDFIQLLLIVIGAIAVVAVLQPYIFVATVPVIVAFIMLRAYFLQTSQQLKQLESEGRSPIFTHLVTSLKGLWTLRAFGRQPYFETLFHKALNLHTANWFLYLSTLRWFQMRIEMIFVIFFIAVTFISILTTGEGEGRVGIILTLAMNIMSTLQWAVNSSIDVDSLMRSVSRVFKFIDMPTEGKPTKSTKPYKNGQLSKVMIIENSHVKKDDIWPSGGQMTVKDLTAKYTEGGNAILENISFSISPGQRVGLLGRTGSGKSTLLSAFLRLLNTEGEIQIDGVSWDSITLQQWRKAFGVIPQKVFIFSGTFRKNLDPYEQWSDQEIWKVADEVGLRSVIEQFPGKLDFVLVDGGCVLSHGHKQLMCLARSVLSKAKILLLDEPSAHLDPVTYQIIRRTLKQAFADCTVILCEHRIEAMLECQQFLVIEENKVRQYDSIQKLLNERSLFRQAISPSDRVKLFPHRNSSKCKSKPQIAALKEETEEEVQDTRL
Description: This assay directly measures the currents associated with chloride flow through CFTR channels whilst either maintaining or adjusting the transmembrane voltage.
Chinese hamster ovary (CHO) cells stably expressing WT-CFTR channels were used for the IonWorks Quattro experiments. Cells were maintained at 37° C. in 5% v/v CO2 at 100% humidity in MEM alpha medium supplemented with 10% (v/v) FCS, 100 U/mL Penicillin/Streptomycin, and 100 μg/L methotrexate. For experiments, cells were grown in 225 cm^2 tissue culture flasks until almost confluent. Cells were removed from the flask using trypsin-EDTA and resuspended in extracellular recording solution for immediate experimentation.
Cells, at a density of 1.5-2 million per mL, were placed on the Quattro system, added to the planar patch plate and seals allowed to establish for 5-10 mins. […] CFTR was activated by the addition of 10 μM forskolin to each of the 384 wells of the patch plate. […] Test compounds, diluted from 10 mM stocks in DMSO in extracellular solution were then added to the patch plate and were incubated for a further 10 min. […] This was determined at both −100 mV and +100 mV which represents the inward and outward current respectively.

`Cc1csc(-c2c3c(=O)n(C)c(=O)n(C)c3c3n2CCC[C@H]3c2nc(Cl)cs2)n1` (single isomer, unassigned) [Example 13.2a, 10-(4-chlorothiazol-2-yl)-1,3-dimethyl-5-(4-methylthiazol-2-yl)-7,8,9,10-tetrahydropyrimido[4,5-a]indolizine-2,4(1H,3H)-dione] returned an IC50 of 0.05 µM. That is a double-digit nanomolar value.
